≈ marks a conversion by molar mass, not a printed value.
Key:
Enterococcus sp. = assay: In vitro antibacterial evaluation: minimum inhibitory concentration (MIC), broth dilution method; format: cell-based; conditions: broth dilution, 5×10^5 CFU/mL, 18 hours at 35° C.
How it was run: (§1)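 Following NCCLS approved standard M7-A2, compounds are serially diluted from 64 to 0.06 μg/mL in Muller-Hinton II […] and inoculated at 5×10^5 CFU/mL; the MIC is the minimum concentration at which growth is inhibited.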

Escherichia coli = assay: as above; format: cell-based; conditions: 5×10^5 CFU/mL, 18 hours at 35° C.
How it was run: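 NCCLS M7-A2 broth dilution; Muller-Hinton II […]; 5×10^5 CFU/mL; 64-0.06 μg/mL. MIC = lowest concentration with no growth.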

Staphylococcus sp. = assay: as above; format: cell-based; conditions: for MIC Staphylococcus aureus (ATCC 29213): strain ATCC 29213; for MIC Staphylococcus aureus (GC 1131): strain GC 1131; for MIC Staphylococcus aureus (GC 3051): strain GC 3051; for MIC Staphylococcus aureus (GC 3053): strain GC 3053; for MIC Staphylococcus aureus (GC 4541): strain GC 4541; for MIC Staphylococcus aureus (GC 4542): strain GC 4542; for MIC Staphylococcus aureus-SMITH (GC 4543): strain GC 4543; for MIC Staphylococcus aureus (GC 4544): strain GC 4544; for MIC Staphylococcus aureus (GC 4545): strain GC 4545; for MIC Staphylococcus haemolyticus (GC 4546): strain GC 4546; for MIC Coagulase Negative Staphylococcus (GC 4547): strain GC 4547; for MIC Coagulase Negative Staphylococcus (GC 4548): strain GC 4548; for MIC Coagulase Negative Staphylococcus (GC 4549): strain GC 4549; for MIC Coagulase Negative Staphylococcus (GC 4551): strain GC 4551; for MIC Coagulase Negative Staphylococcus (GC 6257): strain GC 6257
How it was run: as §1

Streptococcus sp. = assay: as above; format: cell-based; conditions: broth dilution, 5×10^5 CFU/mL, 18 hours at 35° C.
How it was run: as §1

[1] = tested on: Enterococcus faecalis (GC 6189), vancomycin resistant strain; assay: Acute lethal infection in mice (ED50); format: in vivo; conditions: female CD-1 mice, intraperitoneal challenge, intravenous dose 30 min. after infection, 7 day survival ratios
How it was run: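 Lethal systemic infection model: female CD-1 mice, 20 ± 1-2 g, intraperitoneal challenge. Single intravenous treatment 30 min after infection; 7-day survival, pooled from 3 tests, gives ED50.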

[2] = broth dilution, 18 hours at 35° C.

## CC(c1ccccc1)C1NC(=O)CNC(=O)C(CO)NC(=O)C(C(O)C2CNC(=N)N2C2OC(CO)C(O)C(O)C2O)NC(=O)C(C(O)C2CNC(=N)N2)NC(=O)C(Cc2ccc(OC3OC(CO)C(OC4OC5COC(C6CCCC6)OC5C(O)C4O)C(O)C3O)cc2)NC1=O (stereo not drawn) [Example 117, Cyclo[glycyl-β-methylphenylalanyl-O-[4-O-[4,6-O-(cyclopentylethylene)hexopyranosyl]-hexopyranosyl]tyrosyl-3-(2-iminoimidazolidin-4-yl)seryl-3-(3-hexopyranosyl-2-iminoimidazolidin-4-yl)serylseryl]]
Enterococcus sp.
  MIC Enterococccus avium (GC 4558): 4 µg/mL (≈ 2.91 µM)
  MIC Enterococccus faecalis (ATCC 29212): 2 µg/mL (≈ 1.45 µM)
  MIC Enterococccus faecalis (GC 2691): 4 µg/mL (≈ 2.91 µM)
  MIC Enterococccus faecalis (GC 3059): 4 µg/mL (≈ 2.91 µM)
  MIC Enterococccus faecalis (GC 4552): 4 µg/mL (≈ 2.91 µM)
  MIC Enterococccus faecalis (GC 4553): 4 µg/mL (≈ 2.91 µM)
  MIC Enterococccus faecalis (GC 4554): 2 µg/mL (≈ 1.45 µM)
  MIC Enterococccus faecalis (GC 6189): 2 µg/mL (≈ 1.45 µM)
  MIC Enterococccus faecium (GC 2243): 2 µg/mL (≈ 1.45 µM)
  MIC Enterococccus faecium (GC 4556): 2 µg/mL (≈ 1.45 µM)
  MIC Enterococccus faecium (GC 4557): 2 µg/mL (≈ 1.45 µM)
  MIC Enterococcus faecalis (GC 2242): 2 µg/mL (≈ 1.45 µM)
Escherichia coli
  MIC Escherichia coli (ATCC 25922): 64 µg/mL (≈ 46.5 µM)
  MIC Escherichia coli (GC 4559): 32 µg/mL (≈ 23.3 µM)
  MIC Escherichia coli (GC 4560): 1 µg/mL (≈ 0.727 µM)
Staphylococcus sp.
  MIC Staphylococcus aureus (ATCC 29213): 1 µg/mL (≈ 0.727 µM)
  MIC Staphylococcus aureus (GC 1131): 2 µg/mL (≈ 1.45 µM)
  MIC Staphylococcus aureus (GC 3051): 1 µg/mL (≈ 0.727 µM)
  MIC Staphylococcus aureus (GC 3053): 2 µg/mL (≈ 1.45 µM)
  MIC Staphylococcus aureus (GC 4541): 1 µg/mL (≈ 0.727 µM)
  MIC Staphylococcus aureus (GC 4542): 1 µg/mL (≈ 0.727 µM)
  MIC Staphylococcus aureus (GC 4544): 2 µg/mL (≈ 1.45 µM)
  MIC Staphylococcus aureus (GC 4545): 1 µg/mL (≈ 0.727 µM)
  MIC Staphylococcus haemolyticus (GC 4546): 1 µg/mL (≈ 0.727 µM)
  MIC Coagulase Negative Staphylococcus (GC 4547): 1 µg/mL (≈ 0.727 µM)
  MIC Coagulase Negative Staphylococcus (GC 4548): 1 µg/mL (≈ 0.727 µM)
  MIC Coagulase Negative Staphylococcus (GC 4549): 1 µg/mL (≈ 0.727 µM)
  MIC Coagulase Negative Staphylococcus (GC 4551): 2 µg/mL (≈ 1.45 µM)
  MIC Coagulase Negative Staphylococcus (GC 6257): 0.5 µg/mL (≈ 0.364 µM)
Staphylococcus sp.; [2]
  MIC Staphylococcus aureus (ATCC 29213): 1 µg/mL (≈ 0.727 µM)
  MIC Staphylococcus aureus (GC 1131): 2 µg/mL (≈ 1.45 µM)
  MIC Staphylococcus aureus (GC 3051): 1 µg/mL (≈ 0.727 µM)
  MIC Staphylococcus aureus (GC 3053): 2 µg/mL (≈ 1.45 µM)
  MIC Staphylococcus aureus (GC 4541): 1 µg/mL (≈ 0.727 µM)
  MIC Staphylococcus aureus (GC 4542): 1 µg/mL (≈ 0.727 µM)
  MIC Staphylococcus aureus-SMITH (GC 4543): 1 µg/mL (≈ 0.727 µM)
  MIC Staphylococcus aureus (GC 4544): 2 µg/mL (≈ 1.45 µM)
  MIC Staphylococcus aureus (GC 4545): 1 µg/mL (≈ 0.727 µM)
  MIC Staphylococcus haemolyticus (GC 4546): 1 µg/mL (≈ 0.727 µM)
  MIC Coagulase Negative Staphylococcus (GC 4547): 1 µg/mL (≈ 0.727 µM)
  MIC Coagulase Negative Staphylococcus (GC 4548): 1 µg/mL (≈ 0.727 µM)
  MIC Coagulase Negative Staphylococcus (GC 4549): 1 µg/mL (≈ 0.727 µM)
  MIC Coagulase Negative Staphylococcus (GC 4551): 2 µg/mL (≈ 1.45 µM)
  MIC Coagulase Negative Staphylococcus (GC 6257): 0.5 µg/mL (≈ 0.364 µM)
Staphylococcus sp.; 18 hours at 35° C.
  MIC Staphylococcus aureus-SMITH (GC 4543): 1 µg/mL (≈ 0.727 µM)
Streptococcus sp.
  MIC Streptococcus agalactiae (GC 4564): 0.25 µg/mL (≈ 0.182 µM)
  MIC Streptococcus pneumoniae (GC 1894): <0.06 µg/mL
  MIC Streptococcus pneumoniae (GC 4565): 0.12 µg/mL (≈ 0.0872 µM)
  MIC Streptococcus pneumonine (ATCC 6301): <0.06 µg/mL
  MIC Streptococcus pyogenes (GC 4563): 0.25 µg/mL (≈ 0.182 µM)
[1]
  median effective dose (ED50), Enterococcus faecalis (GC 6189): 0.38 mg/kg
